From patent US7622487B2, “Piperidine derivative, process for producing the same, and use” (Takeda Pharmaceutical Company Limited, priority 2002, dated 2009)
Structures can show the parent of a compound that is named as a salt.

Target: T1, substance P receptor from human lymphoblast cells (IM-9) (Homo sapiens, UniProt P25103)
T1 construct: The receptor was prepared from human lymphoblast cells (IM-9); endogenous in cells; host or cells: IM-9 human lymphoblast cells (crude membrane fraction, 40,000xG pellet)
T1 sequence (P25103 whole entry): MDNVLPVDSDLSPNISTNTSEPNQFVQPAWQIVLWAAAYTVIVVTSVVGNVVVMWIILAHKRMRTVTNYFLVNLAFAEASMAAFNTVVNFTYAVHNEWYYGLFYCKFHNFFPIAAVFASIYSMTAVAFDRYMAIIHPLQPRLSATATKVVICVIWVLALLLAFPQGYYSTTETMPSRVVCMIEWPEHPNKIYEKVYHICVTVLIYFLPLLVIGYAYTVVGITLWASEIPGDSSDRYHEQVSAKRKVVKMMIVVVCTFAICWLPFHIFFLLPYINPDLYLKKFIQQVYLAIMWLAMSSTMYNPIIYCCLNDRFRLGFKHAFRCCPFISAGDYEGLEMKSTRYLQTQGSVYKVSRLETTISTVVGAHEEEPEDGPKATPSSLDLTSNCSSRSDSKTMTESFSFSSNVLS
Experiment: Radioligand receptor binding inhibitory activity (125I-BHSP binding, receptor from human lymphoblast cells (IM-9))
Conditions: not given
Method: Radioligand receptor binding inhibitory activity (Binding inhibitory activity using receptor from human lymphoblast cells (IM-9))
The method of M. A. Cascieri et al., “Molecular Pharmacology 42, p. […] The receptor was prepared from human lymphoblast cells (IM-9). IM-9 cells (2×10^5 cells/ml) were inoculated and incubated for 3 days (one liter), which was then subjected to centrifuge for 5 minutes at 500×G to obtain cell pellets. […] The residue was twice washed with 30 ml of the above-mentioned buffer, which was then preserved frozen (−80° C.) as a specimen of the receptor.
The specimen was suspended in a reaction buffer (50 mM Tri-HCl buffer (pH 7.4), 0.02% bovine serum albumin, 1 mM phenylmethylsulfonyl fluoride, 2 μg/ml chymostatin, 40 μg/ml bacitracin and 3 mM manganese chloride) to have protein in the concentration of 0.5 mg/ml of protein and 100 μl portion of the suspension was used in the reaction. […] The amount of nonspecific binding was determined by adding substance P at a final concentration of 2×10^−6 M.
After the reaction, using a cell harvester (290 PHD, Cambridge Technology, Inc, U.S.A.), rapid filtration was carried out through a glass filter (GF/B, Whatman, U.S.A.) to stop the reaction. After washing three times with 250 μl of 50 mM Tris-HCl buffer (pH 7.4) containing 0.02% bovine serum albumin, the radioactivity remaining on the filter was determined with a gamma counter. Before use, the filter was immersed in 0.1% polyethyleneimine for 24 hours and air-dried.

Row | SMILES | IC50 [nM]
1 | COc1ccc(-n2nnnc2C(F)(F)F)cc1CNC1CCN(C(=O)CCNC(C)=O)CC1c1ccccc1 (racemic) [Example 761] | 0.054
2 | COc1ccc(-n2nnnc2C(F)(F)F)cc1CNC1CCN(C(C)=O)CC1c1ccccc1 (racemic) [Example 762] | 0.049
3 | COc1ccc(-n2nnnc2C(F)(F)F)cc1CNC1CCN(C(=O)CNC(C)=O)CC1c1ccccc1 (racemic) [Example 753] | 0.073

Same assay, conditions: 125I-BHSP binding, receptor from human lymphoblast cells (IM-9), 25° C., 30 minutes; read-out: IC50 Value

Row | SMILES | IC50 [nM]
4 | CNC(=O)N1CCC(OCc2cc(C(F)(F)F)cc(C(F)(F)F)c2)C(c2ccccc2)C1 (single isomer, unassigned; (+)) [Example 413, (+)-cis-4-[[3,5-Bis(trifluoromethyl)benzyl]oxy]-N-methyl-3-phenyl-1-piperidinecarboxamide] | 0.23
5 | COc1ccc(-n2nnnc2C(F)(F)F)cc1CNC1CCN(C(=O)C2CCN(S(C)(=O)=O)CC2)CC1c1ccccc1 (racemic) [Example 755] | 0.096
6 | CC(=O)N1CCC(C(=O)N2CC[C@H](OCc3cc(C(F)(F)F)cc(C(F)(F)F)c3)[C@H](c3ccccc3)C2)CC1 [Example 70, (+)-(3R,4S)-1-[(1-Acetyl-4-piperidinyl)carbonyl]-4-[[3,5-bis(trifluoromethyl)benzyl]oxy]-3-phenylpiperidine] | 0.15
7 | CNC(=O)N1CCC(NCc2cc(-n3nnnc3C(F)(F)F)cc3c2OCC3)C(c2ccccc2)C1 (racemic) [Example 722] | 0.11

Next, values leading:

Row | IC50 [nM] | SMILES
8 | 0.08 | COc1ccc(-n2nnnc2C(F)(F)F)cc1CNC1CCN(C(=O)CS(C)(=O)=O)CC1c1ccccc1 (racemic) [Example 763]
9 | 0.06 | CC(=O)N1CCC(C(=O)N2CC[C@H](NCc3cc(-n4nnnc4C(F)(F)F)cc4c3OCC4)[C@H](c3ccccc3)C2)CC1 (single isomer, unassigned) [Example 88, (−)-cis-1-[(1-Acetyl-4-piperidinyl)carbonyl]-3-phenyl-N-[[5-[5-(trifluoromethyl)-1H-tetrazol-1-yl]-2,3-dihydro-1-benzofuran-7-yl]methyl]-4-piperidineamine hydrochloride]
10 | 0.025 | CCNC(=O)N1CC[C@H](NCc2cc(-n3nnnc3C(F)(F)F)ccc2OC)[C@H](c2ccccc2)C1 (single isomer, unassigned) [Example 75, (+)-cis-N-Ethyl-4-[[2-methoxy-5-[5-(trifluoromethyl)-1H-tetrazol-1-yl]benzyl]amino]-3-phenyl-1-piperidinecarboxamide hydrochloride]
11 | 0.085 | COc1ccc(-n2nnnc2C(F)(F)F)cc1CNC1CCN(C(=O)CO)CC1c1ccccc1 (racemic) [Example 760]
12 | 0.042 | COc1ccc(-n2nnnc2C(F)(F)F)cc1CNC1CCN(C(=O)CN2C(=O)CCC2=O)CC1c1ccccc1 (racemic) [Example 764]
13 | 0.058 | COc1ccc(-n2nnnc2C(F)(F)F)cc1CNC1CCN(C(=O)C2CCN(C(C)=O)CC2)CC1c1ccccc1 (single isomer, unassigned; (-)) [Example 81, (−)-cis-1-[(1-Acetyl-4-piperidinyl)carbonyl]-N-[2-methoxy-5-[5-(trifluoroinethyl)-1H-tetrazol-1-yl]benzyl]-3-phenyl-4-piperidineamine hydrochloride]
14 | 0.051 | CCNC(=O)N1CCC(NCc2cc(-n3nnnc3C(F)(F)F)cc3c2OCC3)C(c2ccccc2)C1 (single isomer, unassigned; (-)) [Example 84, (−)-cis-N-Ethyl-3-phenyl-4-[[[5-[5-(trifluoromethyl)-1-H-tetrazol-1-yl]-2,3-dihydro-1-benzofuran-7-yl]methyl]amino]-1-piperidinecarboxamide hydrochloride]
15 | 0.07 | CCNC(=O)N1CCC(NCc2cc(OC(F)(F)F)ccc2OC)C(c2ccccc2)C1 (single isomer, unassigned; (+)) [Example 613, (+)-cis-N-Ethyl-4-[[2-methoxy-5-(trifluoromethoxy)benzyl]amino]-3-phenyl-1-piperidinecarboxamide]
16 | 0.067 | COc1ccc(-n2nnnc2C(F)(F)F)cc1CNC1CCN(C(=O)Cn2cnnn2)CC1c1ccccc1 (racemic) [Example 757]
17 | 0.06 | COCC(=O)N1CC[C@H](NCc2cc(-n3nnnc3C(F)(F)F)ccc2OC)[C@H](c2ccccc2)C1 (single isomer, unassigned) [Example 78, (+)-cis-1-(Methoxyacetyl)-N-[2-methoxy-5-[5-(trifluoromethyl)-1H-tetrazol-1-yl]benzyl]-3-phenyl-4-piperidineamine hydrochloride]
18 | 0.032 | CNC(=O)N1CC[C@H](NCc2cc(-n3nnnc3C(F)(F)F)ccc2OC)[C@H](c2ccccc2)C1 (single isomer, unassigned) [Example 72, (+)-cis-4-[[2-Methoxy-5-[5-(trifluoromethyl)-1H-tetrazol-1-yl]benzyl]amino]-N-methyl-3-phenyl-1-piperidinecarboxamide hydrochloride]

System: not given
Experiment: not given
Conditions: not given

Row | melting point [°C] | SMILES
19 | 160 to 161 | CNC(=O)N1CC[C@H](OCc2cc(C(F)(F)F)cc(C(F)(F)F)c2)[C@H](Cc2ccccc2)C1 (relative stereo) [Example 405, cis-3-Benzyl-4-[[3,5-bis(trifluoromethyl)benzyl]oxy]-N-methyl-1-piperidinecarboxamide]
